This experiment has as its target T1, TRPA1 receptor (Homo sapiens, UniProt O75762).
T1 construct: expressed in transfected cells; host or cells: HEK cell line
Put plainly: cell-based. Set-up: activation: dose or concentration left out as unconfirmed. The conditions noted are these: for activation at 100 µM / activation: HEK293, percentage of the control (allyl isothiocyanate) calcium count, material dissolved in DMSO at 100 micromolar, HEK cells with TRPA1. As for the experimental part:
The term “TRPA1 activator” as used herein refers to any component which at a concentration of 1 mM gives a calcium flux count of at least 1000 counts above the background level of calcium present in the cell according to the FLIPR method as discussed herein. The term “count” is defined as the change in fluorescence of the transfected cell lines due to the influx of calcium across the cell membrane, which reacts with the calcium sensitive dye present within the cells.
In order to select TRPA1 agonists that would be preferred for reducing off-tasting chemical components found in oral care compositions, calcium flux receptor activity on the TRPA1 was utilized as the criteria for selection of actives. With allyl isothiocyanate as the TRPA1 positive control, molecules that directly activated the TRPA1 receptor were screened in dimethylsulfoxide (DMSO). Pure molecules of each material were dissolved in DMSO at a concentration of 100 micormolar and then added to an HEK cell line containing the TRPA1 receptor. If they are TRPA1 agonists, they will cause a calcium flux in the cell which fluoresces and may then be measured using a FLIPR machine.

Setting [1] is: direct addition, read-out: TRPA1 Direct addition.
The mark [2] stands for this setting: pre-incubation, read-out: TRPA1 Pre-incubation.

Where two headings read alike, the source gives them in different places.
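Wherever TRPA1 Pre-incubation is given: values above 100 mean more active than the control.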

T1 sequence (O75762 whole entry): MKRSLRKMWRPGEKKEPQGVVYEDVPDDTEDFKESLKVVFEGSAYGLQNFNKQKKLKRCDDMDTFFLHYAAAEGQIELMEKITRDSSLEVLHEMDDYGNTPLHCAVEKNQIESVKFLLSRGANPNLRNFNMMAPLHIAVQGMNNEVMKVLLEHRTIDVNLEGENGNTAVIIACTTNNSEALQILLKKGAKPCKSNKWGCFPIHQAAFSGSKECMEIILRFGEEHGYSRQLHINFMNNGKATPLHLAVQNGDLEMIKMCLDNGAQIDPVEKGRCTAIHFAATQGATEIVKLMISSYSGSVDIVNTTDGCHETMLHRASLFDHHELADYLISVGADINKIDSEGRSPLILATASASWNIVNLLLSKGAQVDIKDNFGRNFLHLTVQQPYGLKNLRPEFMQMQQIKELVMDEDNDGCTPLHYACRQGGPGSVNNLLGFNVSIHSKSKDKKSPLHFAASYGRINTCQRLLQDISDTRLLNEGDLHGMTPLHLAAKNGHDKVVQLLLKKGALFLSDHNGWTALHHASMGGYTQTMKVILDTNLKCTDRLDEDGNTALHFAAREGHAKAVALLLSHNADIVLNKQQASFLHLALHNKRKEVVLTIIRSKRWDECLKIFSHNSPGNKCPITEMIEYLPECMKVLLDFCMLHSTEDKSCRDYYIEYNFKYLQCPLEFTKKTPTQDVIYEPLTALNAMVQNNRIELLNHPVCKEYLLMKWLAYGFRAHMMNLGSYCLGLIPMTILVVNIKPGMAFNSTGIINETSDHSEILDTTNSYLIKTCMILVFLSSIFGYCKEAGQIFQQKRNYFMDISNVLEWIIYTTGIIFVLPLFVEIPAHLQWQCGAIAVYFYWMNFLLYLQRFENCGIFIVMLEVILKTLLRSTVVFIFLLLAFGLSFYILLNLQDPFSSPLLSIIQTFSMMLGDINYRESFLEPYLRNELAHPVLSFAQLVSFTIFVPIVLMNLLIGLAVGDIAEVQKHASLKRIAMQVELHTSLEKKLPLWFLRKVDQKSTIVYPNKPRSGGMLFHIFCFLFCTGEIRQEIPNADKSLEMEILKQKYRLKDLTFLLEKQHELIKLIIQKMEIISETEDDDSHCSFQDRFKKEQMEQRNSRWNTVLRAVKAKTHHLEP

In the case of 2-Methybutyl Isovalerate, the “TRPA1 Direct addition” value is on record as −1.49% and the “TRPA1 Pre-incubation” value was determined as 69.9%.
As to `CC=Cc1ccc(OCc2ccccc2)c(OC)c1` [1-Benzyloxy-2-Mehtoxy-4-(1-Propenyl) Benzene], the “TRPA1 Direct addition” value is −3.8% and the “TRPA1 Pre-incubation” value was found to be 30.8%.
For `Cn1cccc1C=O` [1-Methylpyrrole-2-carboxaldehyde], the activation at 100 µM under setting [1] was -3.47%. In addition, the activation under setting [2] was -1.04%.
On the same counts, the results for `Cc1cnc(C)c(C)n1` [2,3,5-Trimethyl-pyrazine] are -1.13% and 48.8%.
Consider `CCc1ncc(C)nc1CC` [2,3-Diethyl-5-Methylpyrazine], for which the activation at 100 µM under setting [1] stood at 0.99%. For the same molecule, the activation under setting [2] turned out to be 76.9%.
In the same order, the values of `Cc1nccnc1C` [2,3-Dimethylpyrazine] are -1.77% and 62.6%.
Consider `CCCC(=O)C(C)=O` [2,3-Hexanedione], for which, under setting [1], the activation at 100 µM is -0.19%. For the same molecule, under setting [2], the activation is 101%.
On the same counts, the results for `Cc1cnc(C)cn1` [2,5-Dimethylpyrazine] are -1.08% and 66.8%.
In the same order, the values of `CC1=C(CC=O)C(C)(C)CCC1` [2,6,6-Trimethyl-1-cyclohexene-1-acetaldehyde] are -0.32% and 106%.
On the same counts, the results for `COc1cccc(OC)c1O` [2,6-Dimethoxyphenol] are -0.24% and 71.6%.
With `CC(C)=CCCC(C)C=O` (centres unmarked) [2,6-Dimethyl-5-Heptenal], the activation at 100 µM under setting [1] was -0.15% and the activation at 100 µM under setting [2] turned out to be 97.6%.
Regarding `CCc1cnccn1` [2-Ethylpyrazine], the activation at 100 µM under setting [1] was -1.56%. The activation under setting [2] was determined as 49.9%.
`CCc1ccccc1S` [2-Ethylthiophenol]: the activation at 100 µM under setting [1] came out at 0.34%. For the same molecule, under setting [2], the activation worked out at 5.23%.
Take `COc1nccnc1C` [2-Methoxy-3-Methylpyrazine]: the activation at 100 µM under setting [1] was -0.83%. Besides, the activation under setting [2] came to 84.7%.
On the same counts, the results for `C=Cc1ccc(O)c(OC)c1` [2-Methoxy-4-Vinylphenol] are 1.16% and 71.4%.
In the same order, the values of `CCC(C)CO` (centres unmarked) [2-Methyl-1-Butanol] are -1.19% and 71.6%.
Take `CCC=C(C)C(=O)O` [2-Methyl-2-Pentenoic Acid]: the activation at 100 µM under setting [1] was -1.27%. For the same molecule, the activation under setting [2] is 73.8%.
Turning to `CCC(C)COC(C)=O` (centres unmarked) [2-Methylbutyl Acetate], the activation at 100 µM under setting [1] was -0.99%. For the same molecule, the activation under setting [2] is 60.3%.
On the same counts, the results for `CC1OCCC1=O` (centres unmarked) [2-Methyltetrahydrofuran-3-one] are -1.5% and 77.5%.
On to `CCCCCCCCCC(C)C=O` (centres unmarked) [2-Methylundecanal], for which the activation at 100 µM under setting [1] was found to be 0.82%. Further, the activation under setting [2] is 79.8%.
Take `CCCCCCCCCCCC(C)=O` [2-Tridecanone]: the activation at 100 µM under setting [1] was determined as 7.21%. The activation under setting [2] was determined as 60.8%.
In the same order, the values of `CCC(C)C1CCCCC1=O` (centres unmarked) [2-sec-Butylcyclohexanon] are -1.47% and 63.7%.
In the same order, the values of `CC(CC=O)CC(C)(C)C` (centres unmarked) [3,5,5-Trimethyl Hexanal] are 75.7% and 92.2%.
For the molecule `CSCCCO` [3-(Methylthio) Propanol], under setting [1], the activation at 100 µM is -0.92%. Also, the activation under setting [2] turned out to be 73.1%.
With `CC(=O)c1cc(C)sc1C` [3-Acetyl-2,5-Dimethylthiophene], the activation at 100 µM under setting [1] came out at 5.75%. Also, under setting [2], the activation turned out to be 64.4%.
On the same counts, the results for `CC(C)=CC=O` [3-Methyl-2-Butenal] are 34.4% and 66.3%.
In the same order, the values of `CCC(C)C(=O)OCCC(C)C` (centres unmarked) [3-Methylbutyl-2-Methylbutanoate] are -1.18% and 71.4%.
Take `OCCCc1ccccc1` [3-Phenyl-1-Propanol]: the activation at 100 µM under setting [1] is -0.04%. Also, the activation under setting [2] was found to be 92.2%.

These data come from US9937115B2, “Oral care compositions with improved flavor” (priority 2010, dated 2018).
